Source: US20130012432A1, “Peptides for Treatment of Obesity” (Novo Nordisk A/S, priority 2010, published 2013)
≈ marks a conversion by molar mass, not a printed value. Positions of bridges follow the written chain, without caps; N, C: chain ends. Non-standard residues stand in square brackets, D forms with d. Residues, ends and D or L forms follow the SMILES beside them. Groups on a side chain read outwards from the residue. ξ: configuration not given here. *: point of attachment. Palmitoyl(16-(5-tetrazolyl)) = O=C(CCCCCCCCCCCCCCCc1nnn[nH]1)*; Lys(CH2CO2H)2 = N[C@@H](CCCCN(CC(=O)O)CC(=O)O)C(=O)O; C18 diacid = O=C(O)CCCCCCCCCCCCCCCCC(=O)*; C17 diacid = O=C(O)CCCCCCCCCCCCCCCC(=O)*; Hyp = O=C(O)[C@@H]1C[C@@H](O)CN1; ξH = NC(Cc1c[nH]cn1)C(=O)O; Orn = NCCC[C@H](N)C(=O)O; Dab = NCC[C@H](N)C(=O)O; Dap = NC[C@H](N)C(=O)O; AEEA = NCCOCCOCC(=O)O; ξK = NCCCCC(N)C(=O)O

Legend:
physchem = test: physchem
Procedure: From a stock solution in vehicle, either H2O or 10 mM phosphate, containing 1 mg (as weighed) compound per ml, 8-11 aliquots are withdrawn and pH-adjusted individually with HCl/NaOH, to cover the whole pH range.

MC1 receptor = MC1 receptor (Homo sapiens, UniProt Q01726); test: biochemical
Chain of MC1 receptor (Q01726 whole entry): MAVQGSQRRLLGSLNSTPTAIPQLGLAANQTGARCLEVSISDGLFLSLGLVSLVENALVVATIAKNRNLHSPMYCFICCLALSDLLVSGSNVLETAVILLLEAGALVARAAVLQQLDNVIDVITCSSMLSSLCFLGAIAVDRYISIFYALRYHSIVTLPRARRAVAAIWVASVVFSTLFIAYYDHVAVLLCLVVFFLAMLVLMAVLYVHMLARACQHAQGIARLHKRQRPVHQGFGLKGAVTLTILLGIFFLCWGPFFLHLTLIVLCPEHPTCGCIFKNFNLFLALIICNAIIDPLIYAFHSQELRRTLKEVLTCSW
Procedure: Assay (IV)—Melanocortin Receptor 1 (MC1) Binding Assay
The MC1 receptor binding assay was performed on BHK cell membranes stably expressing the MC1 receptor. The assay was performed in a total volume of 250 μl: 25 μl of ^125NDP-α-MSH (22 pM in final concentration), 25 μl of test compound/control and 200 μl of cell membrane (25 μg/ml). Test compounds were dissolved in DMSO. Radioactively labeled ligand, membranes and test compounds were diluted in buffer: 25 mM HEPES, pH 7.4, 0.1 mM CaCl2, 1 mM MgSO4, 1 mM EDTA, 0.1% HSA and 0.005% Tween™ 20. Alternatively, HSA may be substituted with ovalbumin. The samples were incubated at 30° C. for 90 min. in Costar round-bottom microtiter plates. Incubation was terminated by filtration on a Packard harvester filtermate. Rapid filtration through Packard Unifilter-96 GF/B filters pre-treated with polyetylenimine (PerkinElmer 6005277). The filters were washed with ice-cold 0.9% NaCl 8-10 times. The plates were air-dried at app. 55° C. for 30 min, and 50 μl Microscint 0 (Packard, cat. No. 6013616) was added to each well. The plates were counted in a Topcounter (1 min/well).
The data were analysed by non-linear regression analysis of binding curves, using the Windows™ program GraphPad™ Prism (GraphPad Software, USA).

| SMILES | solubility (physchem; pH 7.4, Solubility Conc.) | solubility (physchem; pH 7.9, Solubility Conc.) | Ki (MC1 receptor) | solubility (physchem; pH 6.6, Solubility Conc.) | solubility (physchem; pH 7.2, Solubility Conc.) | solubility (physchem; pH 7.3, Solubility Conc.) | solubility (physchem; pH 7.5, Solubility Conc.) | solubility (physchem; pH 7.6, Solubility Conc.) | solubility (physchem; pH 7.8, Solubility Conc.) | solubility (physchem; pH 8.1, Solubility Conc.) | solubility (physchem; pH 6.7, Solubility Conc.) | solubility (physchem; pH 7, Solubility Conc.) | other results |
| --- | --- | --- | --- | --- | --- | --- | --- | --- | --- | --- | --- | --- | --- |
| CC(=O)N[C@H]1CCC(=O)NCCC[C@@H](C(=O)N2CCC[C@H]2C(=O)N2CCC[C@H]2C(=O)N[C@@H](CC(=O)O)C(=O)N[C@@H](CCCCN(CC(=O)O)CC(=O)O)C(=O)N[C@@H](CCCCNC(=O)COCCOCCNC(=O)CCCCCCCCCCCCCCCCC(=O)O)C(N)=O)NC(=O)[C@H](Cc2c[nH]c3ccccc23)NC(=O)[C@H](CCCNC(=N)N)NC(=O)[C@@H](Cc2ccccc2)NC(=O)[C@H](Cc2c[nH]cn2)NC1=O [Example 26, Ac-c[Glu-His-D-Phe-Arg-Trp-Orn]-Pro-Pro-Asp-Lys(biscarboxymethyl)-Lys({2-[2-(17-carboxyheptadecanoylamino)ethoxy]ethoxy}acetyl)-NH2] (Ac-EH[dF]RW[Orn]PPD[Lys(CH2CO2H)2]K([AEEA-C18 diacid])-NH2; lactam 1-6) | 482 µM (≈ 981 µg/mL) | 478 µM (≈ 972 µg/mL) | > 10 µM |  |  |  |  |  |  |  |  |  | solubility (physchem; pH 5.5, Solubility Conc.): 49 µM (≈ 99.7 µg/mL); solubility (physchem; pH 5.8, Solubility Conc.): 325 µM (≈ 661 µg/mL); solubility (physchem; pH 6.1, Solubility Conc.): 474 µM (≈ 964 µg/mL); solubility (physchem; pH 6.5, Solubility Conc.): 478 µM (≈ 972 µg/mL); solubility (physchem; pH 6.8, Solubility Conc.): 461 µM (≈ 938 µg/mL); solubility (physchem; pH 7.1, Solubility Conc.): 476 µM (≈ 968 µg/mL); solubility (physchem; pH 7.7, Solubility Conc.): 474 µM (≈ 964 µg/mL) |
| CC(=O)N[C@H]1CCC(=O)NCCCC[C@@H](C(=O)N2CCC[C@H]2C(=O)N2CCC[C@H]2C(=O)N[C@@H](CCCNC(=N)N)C(=O)N[C@@H](CC(=O)O)C(=O)N[C@@H](CCCCN(CC(=O)O)CC(=O)O)C(=O)N[C@@H](CCCCNC(=O)COCCOCCNC(=O)CCCCCCCCCCCCCCCc2nnn[nH]2)C(N)=O)NC(=O)[C@H](Cc2c[nH]c3ccccc23)NC(=O)[C@H](CCCNC(=N)N)NC(=O)[C@@H](Cc2ccccc2)NC(=O)[C@H](Cc2c[nH]cn2)NC1=O [Example 27, Ac-c[Glu-His-D-Phe-Arg-Trp-Lys]-Pro-Pro-Arg-Asp-Lys(biscarboxymethyl)-Lys[(2-{2-[16-(tetrazol-5-yl)hexadecanoylamino]ethoxy}ethoxy)acetyl]-NH2] (Ac-EH[dF]RWKPPRD[Lys(CH2CO2H)2]K([AEEA-Palmitoyl(16-(5-tetrazolyl))])-NH2; lactam 1-6) | 459 µM (≈ 1020 µg/mL) |  | > 10 µM | 42 µM (≈ 93 µg/mL) | 263 µM (≈ 582 µg/mL) | 394 µM (≈ 873 µg/mL) | 474 µM (≈ 1050 µg/mL) | 521 µM (≈ 1150 µg/mL) | 481 µM (≈ 1070 µg/mL) | 435 µM (≈ 963 µg/mL) |  |  | solubility (physchem; pH 6.9, Solubility Conc.): 65 µM (≈ 144 µg/mL) |
| CC(=O)N[C@H]1CCC(=O)NCC[C@@H](C(=O)N2C[C@H](O)C[C@H]2C(=O)N2C[C@H](O)C[C@H]2C(=O)N[C@@H](CCCNC(=N)N)C(=O)N[C@@H](CC(=O)O)C(=O)N[C@@H](CCCCN(CC(=O)O)CC(=O)O)C(=O)N[C@@H](CCCCNC(=O)COCCOCCNC(=O)CCCCCCCCCCCCCCCc2nnn[nH]2)C(N)=O)NC(=O)[C@H](Cc2c[nH]c3ccccc23)NC(=O)[C@H](CCCNC(=N)N)NC(=O)[C@@H](Cc2ccccc2)NC(=O)[C@H](Cc2c[nH]cn2)NC1=O [Example 32, Ac-c[Glu-His-D-Phe-Arg-Trp-Dab]-Hyp-Hyp-Arg-Asp-Lys(biscarboxymethyl)-Lys[(2-{2-[16-(tetrazol-5-yl)hexadecanoylamino]ethoxy}ethoxy)acetyl]-NH2] (Ac-EH[dF]RW[Dab][Hyp][Hyp]RD[Lys(CH2CO2H)2]K([AEEA-Palmitoyl(16-(5-tetrazolyl))])-NH2; lactam 1-6) |  | 674 µM (≈ 1500 µg/mL) | > 10 µM |  | 89 µM (≈ 197 µg/mL) |  | 258 µM (≈ 572 µg/mL) | 324 µM (≈ 719 µg/mL) | 640 µM (≈ 1420 µg/mL) | 230 µM (≈ 510 µg/mL) | 40 µM (≈ 88.7 µg/mL) | 60 µM (≈ 133 µg/mL) |  |
| CC(=O)N[C@H]1CCNC(=O)C[C@@H](C(=O)N2CCC[C@H]2C(=O)N2CCC[C@H]2C(=O)N[C@@H](Cc2c[nH]cn2)C(=O)N[C@@H](CCC(=O)O)C(=O)N[C@@H](CCCCN(CC(=O)O)CC(=O)O)C(=O)N[C@@H](CCCCNC(=O)COCCOCCNC(=O)CCCCCCCCCCCCCCCc2nnn[nH]2)C(N)=O)NC(=O)[C@H](Cc2c[nH]c3ccccc23)NC(=O)[C@H](CCCNC(=N)N)NC(=O)[C@@H](Cc2ccccc2)NC(=O)[C@H](Cc2c[nH]cn2)NC1=O [Example 33, Ac-c[Dab-His-D-Phe-Arg-Trp-Asp]-Pro-Pro-His-Glu-Lys(biscarboxymethyl)-Lys[(2-{2-[16-(tetrazol-5-yl)hexadecanoylamino]ethoxy}ethoxy)acetyl]-NH2] (Ac-[Dab]H[dF]RWDPPHE[Lys(CH2CO2H)2]K([AEEA-Palmitoyl(16-(5-tetrazolyl))])-NH2; lactam 1-6) |  |  | > 10 µM | 468 µM (≈ 1010 µg/mL) |  | 488 µM (≈ 1060 µg/mL) | 503 µM (≈ 1090 µg/mL) |  | 489 µM (≈ 1060 µg/mL) | 511 µM (≈ 1110 µg/mL) | 485 µM (≈ 1050 µg/mL) |  | solubility (physchem; pH 6.4, Solubility Conc.): 122 µM (≈ 264 µg/mL); solubility (physchem; pH 6.9, Solubility Conc.): 487 µM (≈ 1060 µg/mL); solubility (physchem; pH 8.6, Solubility Conc.): 473 µM (≈ 1030 µg/mL) |
| CC(=O)N[C@H]1CCC(=O)NCCC[C@@H](C(=O)N2CCC[C@H]2C(=O)N2CCC[C@H]2C(=O)N[C@@H](CCCNC(=N)N)C(=O)N[C@@H](CC(=O)O)C(=O)N[C@@H](CCCCN(CC(=O)O)CC(=O)O)C(=O)N[C@@H](CCCCNC(=O)COCCOCCNC(=O)CCCCCCCCCCCCCCCc2nnn[nH]2)C(N)=O)NC(=O)[C@H](Cc2c[nH]c3ccccc23)NC(=O)[C@H](CCCNC(=N)N)NC(=O)[C@@H](Cc2ccccc2)NC(=O)[C@H](CCC(N)=O)NC1=O [Example 37, Ac-c[Glu-Gln-D-Phe-Arg-Trp-Orn]-Pro-Pro-Arg-Asp-Lys(biscarboxymethyl)-Lys[(2-{2-[16-(tetrazol-5-yl)hexadecanoylamino]ethoxy}ethoxy)acetyl]-NH2] (Ac-EQ[dF]RW[Orn]PPRD[Lys(CH2CO2H)2]K([AEEA-Palmitoyl(16-(5-tetrazolyl))])-NH2; lactam 1-6) |  | 507 µM (≈ 1110 µg/mL) | > 10 µM | 450 µM (≈ 986 µg/mL) | 482 µM (≈ 1060 µg/mL) | 486 µM (≈ 1070 µg/mL) | 458 µM (≈ 1000 µg/mL) | 467 µM (≈ 1020 µg/mL) |  |  |  | 510 µM (≈ 1120 µg/mL) | solubility (physchem; pH 5.7, Solubility Conc.): 95 µM (≈ 208 µg/mL); solubility (physchem; pH 6.4, Solubility Conc.): 464 µM (≈ 1020 µg/mL); solubility (physchem; pH 6.8, Solubility Conc.): 453 µM (≈ 993 µg/mL) |
| CC(=O)N[C@H]1CCCNC(=O)C[C@@H](C(=O)N2CCC[C@H]2C(=O)N[C@@H](CO)C(=O)NC(CCCCN)C(=O)N[C@@H](CCC(=O)O)C(=O)N[C@@H](CCC(=O)O)C(=O)N[C@@H](CO)C(=O)N[C@@H](CO)C(=O)N[C@@H](CCCCNC(=O)COCCOCCNC(=O)CCCCCCCCCCCCCCCC(=O)O)C(N)=O)NC(=O)CNC(=O)[C@H](Cc2c[nH]c3ccccc23)NC(=O)[C@H](CCCNC(=N)N)NC(=O)[C@@H](Cc2ccccc2)NC(=O)C(Cc2c[nH]cn2)NC(=O)[C@H](CCC(=O)O)NC1=O (stereo partly drawn) [Example 40] (Ac-[Orn]E[ξH][dF]RWGDPS[ξK]EESSK([AEEA-C17 diacid])-NH2; lactam 1-8) | 499 µM (≈ 1190 µg/mL) |  | > 10 µM |  |  |  |  | 489 µM (≈ 1170 µg/mL) |  |  | 493 µM (≈ 1180 µg/mL) | 505 µM (≈ 1200 µg/mL) | solubility (physchem; pH 5.9, Solubility Conc.): 266 µM (≈ 634 µg/mL); solubility (physchem; pH 6.3, Solubility Conc.): 501 µM (≈ 1190 µg/mL); solubility (physchem; pH 6.5, Solubility Conc.): 512 µM (≈ 1220 µg/mL); solubility (physchem; pH 8, Solubility Conc.): 488 µM (≈ 1160 µg/mL); solubility (physchem; pH 8.2, Solubility Conc.): 503 µM (≈ 1200 µg/mL) |
| CC(=O)N[C@H]1CC(=O)NC[C@@H](C(=O)N2CCC[C@H]2C(=O)N2CCC[C@H]2C(=O)N[C@@H](CCCNC(=N)N)C(=O)N[C@@H](CC(=O)O)C(=O)N[C@@H](CCCCN(CC(=O)O)CC(=O)O)C(=O)N[C@@H](CCCCNC(=O)COCCOCCNC(=O)CCCCCCCCCCCCCCCc2nnn[nH]2)C(N)=O)NC(=O)[C@H](Cc2c[nH]c3ccccc23)NC(=O)[C@H](CCCNC(=N)N)NC(=O)[C@@H](Cc2ccccc2)NC(=O)[C@H](Cc2c[nH]cn2)NC1=O [Example 41, Ac-c[Asp-His-D-Phe-Arg-Trp-Dap]-Pro-Pro-Arg-Asp-Lys(biscarboxymethyl)-Lys[(2-{2-[16-(tetrazol-5-yl)hexadecanoylamino]ethoxy}ethoxy)acetyl]-NH2] (Ac-DH[dF]RW[Dap]PPRD[Lys(CH2CO2H)2]K([AEEA-Palmitoyl(16-(5-tetrazolyl))])-NH2; lactam 1-6) | 160 µM (≈ 345 µg/mL) |  | > 10 µM |  |  | 87 µM (≈ 188 µg/mL) | 387 µM (≈ 835 µg/mL) | 497 µM (≈ 1070 µg/mL) | 451 µM (≈ 973 µg/mL) |  |  | 39 µM (≈ 84.2 µg/mL) | solubility (physchem; pH 7.7, Solubility Conc.): 478 µM (≈ 1030 µg/mL); solubility (physchem; pH 8, Solubility Conc.): 493 µM (≈ 1060 µg/mL) |
